Results on 6 molecules are retold here after patent publication US12633374B2, “Method for determining efficacy of chemotherapy treatment for a subject” (RNA Diagnostics Inc., priority 2012, dated 2026).

Experiment [1] has as its system Colon adenocarcinoma cells LS174T. Briefly: RNA disruption in LS174T cells. Conditions: 24 hr, FIG. 20A. Format: cell-based. The method, then: Colon adenocarcinoma cells LS174T were incubated with Sunitinib, a receptor tyrosine kinase inhibitor. RNA was isolated from the cells and analyzed using an Agilent Bioanalyzer.
RNA was isolated from the cells and analyzed using an Agilent Bioanalyzer.

The subject of the next experiment is tumour sample. Put plainly: Maximal RDI score in tumour biopsies of patients on neo-adjuvant Zometa. To be noted: after the first cycle, FIG. 17C and 17D. The class given is in vivo, human. How it is done:
Biopsy samples were obtained from patients undergoing neo-adjuvant therapy with Zometa. RNA was isolated and analyzed using the Agilent Bioanalyzer. Electropherograms were analyzed using the methods 100 and 400 and the maximal RDI score was graphed for each tumour sample at each time-point.

In experiment [2] the test system is A2780 ovarian cancer cells. Put plainly: RNA disruption in drug-treated A2780 cells (Agilent Bioanalyzer electropherogram/gel). The class given is cell-based, human. To be noted: for Low C Area/(28S+18S) vs docetaxel dose: method 400; for RNA electropherogram banding pattern: 24 hours at 37° C. The method, then: RNA was isolated from ovarian cancer cell line A2780 cells which had been treated with 10 μM docetaxel in 50% media or 20 μM epirubicin, each in 50% media. Cells were treated with the chemotherapeutic for 24 hours at 37° C. Isolated RNA was separated by microcapillary electrophoresis using the Agilent 2100 Bioanalyzer.
Cells were plated and treated with docetaxel concentrations ranging from 0.001-40 μM for 24 to 72 hours to assess the effect on cell number, RNA content, and integrity (measured using a Bioanalyzer 2100 from Agilent Technologies, Inc.).
RNA was isolated and electrophoretically separated on an Agilent Bioanalyzer. As shown in FIG. 9D bands appeared just below the 28S (e.g. intermediate) and 18S bands (e.g. low banding region) at 0.005 uM and peaked at 0.2 uM.
A time course experiment was conducted in A2780 cells. Cells were treated for up to 72 hours with docetaxel at 0.005 uM and 0.2 uM. RNA was isolated and run on an Agilent Bioanalyzer.
Plots of the combination of features Intermediate Area/(28S+18S) and Low C Area/(28S+18S) were generated using the method 400 although method 300 may also be used.

For experiment [3], the system named is docetaxel-resistant A2780DXL cells. Put plainly: RNA disruption in docetaxel-resistant A2780 cells. The class given is cell-based, human. The method, then: A docetaxel A2780 resistant cell line was made as described in Li et al., Int. J. Mol. Med 2004 14(20): 257-264.
A time course experiment was conducted. Sensitive parental and docetaxel resistant A2780 cells were treated with docetaxel for 24 hours. RNA was isolated and run on an Agilent Bioanalyzer.

In experiment [4] the test system is A2780 ovarian cancer cells. Put plainly: Cell counts of A2780 cells treated with docetaxel. Conditions: up to 72 hours, FIG. 9A.
Method: A2780 cells were treated for up to 72 hours with docetaxel at 0.005 uM and 0.2 uM. Cell counts were measured at each time-point.
In the next experiment the test system is xenograft tumours. Put plainly: RNA from docetaxel-treated xenograft tumours after storage in liquid nitrogen or saline (Agilent 2100 Bioanalyzer). Further details: 18S Area / 28S Area / RNA Area: unit not given here. Format: in vivo. The method, then: RNA isolated from xenograft tumours stored in liquid nitrogen, RNALater™ solution or left in saline for 1h, 2h, 5h and 24h to induce autocatalytic degradation was analyzed by measuring an RNA Integrity Number (RIN) using Agilent 2100 Bioanalyzer. […] Circles above the gel lanes indicate that an RIN number could be calculated (FIG. 8A). Circles encapsulated by squares indicate samples for which an RIN number could not be calculated. Control samples were untreated xenograft tumours (1-7). Treated samples (8-12) were given docetaxel. Various measurements for the data shown in FIGS. 8B-8M follow in Tables 3.1 to 3.12.

Experiment [5] concerns A2780 ovarian cancer cells. Briefly: Amount of RNA per cell in A2780 cells treated with docetaxel. Format: cell-based, human. The method, then: A2780 cells treated for up to 72 hours with docetaxel at 0.005 uM and 0.2 uM, were analyzed for the amount of RNA per cell. RNA was isolated and electophoretically separated using an Agilent Bioanalyzer.
A further experiment concerns A2780 cells. Put plainly: Recovery Assay after docetaxel treatment. Format: cell-based, human. To be noted: 0.2 uM docetaxel up to 72 hours, washed, replated in drug-free media, FIG. 9C. How it is done: A Recovery Assay was next carried out to determine if A2780 cells could recover from treatment with 0.2 uM docetaxel. A2780 cells were treated with 0.2 uM docetaxel for up to 72 hours and then washed and replated in drug-free media.

Experiment [6] deals with Jurkat T leukemia cell line. Conditions: Fimognari et al 2009; cited from earlier work.
The test system of experiment [7] is Colon adenocarcinoma cells SW480. Put plainly: RNA disruption in SW480 cells. Format: cell-based. To be noted: 72 hr, FIG. 20C. The method, then:
Colon adenocarcinoma cells SW480 were incubated with Epirubicin, a DNA synthesis inhibitor. RNA was isolated from the cells and analyzed using an Agilent Bioanalyzer. RNA Disruption is evident at 72 hr at […] (see FIG. 20C).

The test system of experiment [8] is A2780 ovarian cancer cells. Briefly: Effect of caspase inhibitor on RNA integrity changes in docetaxel-treated cells. Format: cell-based, human. To be noted: FIG. 9J. The method, then: The effect of a caspase inhibitor on RNA integrity changes was next assessed. Cells were treated with or without docetaxel at a concentration of 0.2 uM in the presence or absence of the caspase inhibitor Q-DEVD-OPH (Biovision Laboratories) at a concentration of 10 uM.

Where [9] appears, read: tumour left in saline 1h, sample 9.
Setting [10] is: tumour left in saline 2h, sample 10.
The mark [11] stands for this setting: tumour left in saline 5h, sample 11.
Setting [12] is: tumour left in saline 24h, sample 12.
[13] abbreviates: tumour stored in liquid nitrogen, sample 8.

Consider `CCN(CC)CCNC(=O)c1c(C)[nH]c(/C=C2\C(=O)Nc3ccc(F)cc32)c1C` [Sunitinib], for which the “concentration at which RNA Disruption is evident” value in [1] amounted to 54 mM.
Consider `O=P(O)(O)C(O)(Cn1ccnc1)P(=O)(O)O` [Zometa], for which the RDI values result in the experiment on tumour sample is listed as “increased in some patients”.
For `CC(=O)O[C@@]12CO[C@@H]1C[C@H](O)[C@@]1(C)C(=O)[C@H](O)C3=C(C)[C@@H](OC(=O)[C@H](O)[C@@H](NC(=O)OC(C)(C)C)c4ccccc4)C[C@@](O)([C@@H](OC(=O)c4ccccc4)[C@H]21)C3(C)C` [docetaxel], the “Low C Area/(28S+18S) vs docetaxel dose” value in experiment [2] (8 hr, 24 hr, or 48 hr) is “Little change”. In addition, in experiment [2] (24 hours, 0 to 40 uM, FIG. 9D), the “docetaxel concentration at which banding below 28S and 18S peaked” value is 0.2 µM; the “docetaxel concentration at which bands appeared just below the 28S and 18S bands” value was determined as 0.005 µM. Further, the “docetaxel concentration at which additional bands are visible on gel” value in experiment [2] (FIG. 9D, 24 hours) was determined as 0.05 µM. Besides, the “docetaxel concentrations giving dose and time-dependent reductions in cell number and cell RIN values while RDI increased” value in experiment [2] (RDI = Intermediate Area/(28S+18S)) was not below 0.1 µM. In addition, in experiment [2] (after 72 hr), the “Low C Area/(28S+18S) vs docetaxel dose” value is given as “dramatic increase”. Also, in experiment [2] (docetaxel 0.005 uM and 0.2 uM, 24 to 72 hours, FIG. 9F), the “Intermediate/(28S+18S)” value is on record as “increases dramatically with time”. For the same molecule, the “Low banding area/(28S+18S)” value in experiment [2] (docetaxel 0.005 uM and 0.2 uM, 24 to 72 hours, FIG. 9G) is recorded as “also increases with time”. In addition, in [2] (docetaxel 0.005 uM and 0.2 uM, up to 72 hours, FIG. 9H), the “RNA banding in time course” value is “banding appears below the 28S and 18S bands at all time-points”. In addition, the “RNA electropherogram banding pattern” value in experiment [2] (docetaxel 10 μM in 50% media, FIG. 2) is “shows an intermediate peak and a peak adjacent to the 18S peak”. Moreover, the RIN entry in experiment [2] (docetaxel concentrations ≥0.005 uM) was “did not change significantly”. Besides, the “docetaxel concentration at which banding appears below the 28S and 18S bands” value in experiment [2] (sensitive parental cells, 24 hours, FIG. 9I) came to 0.005 µM. In experiment [3] (A2780DXL cells treated with docetaxel), the “RNA disruption and cellular RNA content” value is “did not result in RNA disruption or changes in cellular RNA content”. For the same molecule, the “RNA banding below the 28S and 18S bands” value in [3] (resistant cells, docetaxel 24 hours, FIG. 9I) was “no banding is evident”. Besides, the “docetaxel concentrations at which cell numbers remained constant” value in experiment [4] is listed as “greater than or equal to 0.005 uM”. Further, in the experiment with xenograft tumours (setting [9]), the “18S % of total Area” value turned out to be 8.3%, the “18S Area” value is recorded as 13.2, the “28S % of total Area” value was found to be 6.4% and the “28S Area” value turned out to be 10.2. For the same molecule, in the experiment with xenograft tumours (setting [9]), the “RNA Area” value worked out at 158.5, the “RNA Concentration” value was found to be 85 ng/µL and the “rRNA Ratio [28 s/18 s]” value is listed as 0.8. Moreover, in the experiment on xenograft tumours (setting [10]), the “18S % of total Area” value turned out to be 9.8%, the “18S Area” value is 27.3, the “28S % of total Area” value was 6.6% and the “28S Area” value is listed as 18.5. Besides, in the experiment on xenograft tumours (setting [10]), the “RNA Area” value was determined as 278.5, the “RNA Concentration” value came out at 150 ng/µL, the “RNA Integrity Number (RIN)” value is listed as 6.5 (B.02.06) and the “RNA Ratio [28 s/18 s]” value amounted to 0.7. Also, in the experiment on xenograft tumours (setting [11]), the “18S % of total Area” value was determined as 6.5%, the “18S Area” value is given as 15.4, the “28S % of total Area” value worked out at 6.6% and the “28S Area” value is on record as 15.4. Also, in the experiment on xenograft tumours (setting [11]), the “RNA Area” value is 235.4, the “RNA Concentration” value was 127 ng/µL and the “rRNA Ratio [28 s/18 s]” value was found to be 1.0. For the same molecule, in the experiment with xenograft tumours (setting [12]), the “18S % of total Area” value is 1.1%, the “18S Area” value is 1.9, the “RNA Area” value turned out to be 168.9 and the “RNA Concentration” value amounted to 91 ng/µL. In the experiment with xenograft tumours (setting [12]), the “RNA Integrity Number (RIN)” value was 2.7 (B.02.06) and the “rRNA Ratio [28 s/18 s]” value was 0.0. In addition, in the experiment with xenograft tumours (setting [13]), the “18S % of total Area” value was 18.4%, the “18S Area” value is given as 46.1, the “28S % of total Area” value was found to be 21.8% and the “28S Area” value is 54.6. Moreover, in the experiment with xenograft tumours (setting [13]), the “RNA Area” value was 250.5, the “RNA Concentration” value stood at 135 ng/µL, the “RNA Integrity Number (RIN)” value was 9.1 (B.02.06) and the “rRNA Ratio [28 s/18 s]” value was 1.2. In addition, the “amount of RNA per cell” value in experiment [5] (docetaxel 0.005 uM and 0.2 uM, up to 72 hours, FIG. 9B) was “increase in a time-dependent and dose-dependent manner”. Further, the “RNA content per cell” value in [5] (low docetaxel concentrations) is given as “increased per cell”. Moreover, the “resumption of cell proliferation after drug withdrawal” value in the experiment with A2780 cells is on record as “No resumption of cell proliferation”.
For the molecule `COc1cccc2c1C(=O)c1c(O)c3c(c(O)c1C2=O)C[C@@](O)(C(=O)CO)C[C@@H]3O[C@H]1C[C@H](N)[C@H](O)[C@H](C)O1` [doxorubicin], the “susceptibility of total RNA to chemical attack” value in experiment [6] is recorded as “susceptible to chemical attack”.
For the molecule `COc1cccc2c1C(=O)c1c(O)c3c(c(O)c1C2=O)C[C@@](O)(C(=O)CO)C[C@@H]3O[C@H]1C[C@H](N)[C@@H](O)[C@H](C)O1` [epirubicin], the “RNA electropherogram banding pattern” value in experiment [2] (epirubicin 20 μM in 50% media, FIG. 3) is “intermediate bands between the 18S and 28S peaks”. The “concentration at which RNA Disruption is evident” value in experiment [7] is 0.5 mM.
As for Q-DEVD-OPH, the “bands below the 28S and 18S bands” value in experiment [8] (0.2 uM docetaxel with or without 10 uM caspase inhibitor) is “detectable in the presence and absence”. The “effect on loss of 28S and 18S bands” value in experiment [8] (10 uM inhibitor with 0.2 uM docetaxel, 72 hr) is “reduces the loss of 28S and 18S bands”.
